Counter-ions that a name gives are not always drawn. Like-named read-outs stand apart in the source and are kept apart here. Values belong to the compound of their own block, whether it stands above or below them.
Assays:
[1] = target: MELK (Homo sapiens, UniProt Q14680); assay: Kinase assay: MELK activity, phosphorylation of FITC-labeled histone H3 peptide measured by IMAP fluorescence polarization; format: biochemical; conditions: read-out: IC50 (μM) (kinase assay)
Experimental: MELK activity was determined in the presence or absence of compounds using fluorescein isothiocyanate-labeled (FITC-labeled) histone H3 peptide as a substrate. […] Test compounds were dissolved in DMSO at 12.5 mM and then serially diluted as the DMSO concentration in the assays to be 1%. […] The reaction was stopped by the addition of three fold assay volume of progressive binding solution. Following 0.5 hour incubation at room temperature, fluorescence polarization was measured by Wallac EnVision 2103 multilabel reader (PerkinElmer).

[2] = tested on: T47D cells; assay: Cell-based assay: anti-proliferative activity, Cell Counting Kit-8, 72 hours (T47D); conditions: Homo sapiens, T47D, 72 h
Experimental: (§1) To evaluate the expression status of MELK in several cell lines, western blot analysis was performed using crude cell lysate collected from those cells. Anti-MELK antibody (clone 31, BD Biosciences) was used to visualize the expression.
(§2) Active candidate inhibitors against MELK were evaluated for their target-specific cytotoxicity using T47D, A549, BT-549, and HT-1197 cells was used for negative control. 100 micro-L of cell suspension was seeded onto 96-well microtiter plate (ViewPlate-96FTC, PerkinElmer). The initial cell concentration of T47D, A549, BT-549, and HT-1197 were 3,000 cells/well, 2,000 cells/well and 2,500 cells/well, respectively. Cellular growth was determined using Cell Counting Kit-8 (DOJINDO) at 72 hours after the exposure of the candidate inhibitors. […] Accurate IC50 values were calculated as described previously.

[3] = tested on: HT-1197 cells; assay: Cell-based assay: anti-proliferative activity, Cell Counting Kit-8, 72 hours (HT-1197, negative control without MELK expression); conditions: Homo sapiens, HT1197, 72 h, 72 hours
Experimental: as §1, §2

[4] = HT1197 cells (negative control)
[5] = HT1197 cells (negative control, no MELK expression)
[6] = 50 micro-M ATP, FITC-labeled histone H3 peptide substrate, IMAP fluorescence polarization
[7] = MELK kinase assay, IMAP fluorescence polarization, 50 micro-M ATP

MELK, sequence (Q14680 whole entry, looked up): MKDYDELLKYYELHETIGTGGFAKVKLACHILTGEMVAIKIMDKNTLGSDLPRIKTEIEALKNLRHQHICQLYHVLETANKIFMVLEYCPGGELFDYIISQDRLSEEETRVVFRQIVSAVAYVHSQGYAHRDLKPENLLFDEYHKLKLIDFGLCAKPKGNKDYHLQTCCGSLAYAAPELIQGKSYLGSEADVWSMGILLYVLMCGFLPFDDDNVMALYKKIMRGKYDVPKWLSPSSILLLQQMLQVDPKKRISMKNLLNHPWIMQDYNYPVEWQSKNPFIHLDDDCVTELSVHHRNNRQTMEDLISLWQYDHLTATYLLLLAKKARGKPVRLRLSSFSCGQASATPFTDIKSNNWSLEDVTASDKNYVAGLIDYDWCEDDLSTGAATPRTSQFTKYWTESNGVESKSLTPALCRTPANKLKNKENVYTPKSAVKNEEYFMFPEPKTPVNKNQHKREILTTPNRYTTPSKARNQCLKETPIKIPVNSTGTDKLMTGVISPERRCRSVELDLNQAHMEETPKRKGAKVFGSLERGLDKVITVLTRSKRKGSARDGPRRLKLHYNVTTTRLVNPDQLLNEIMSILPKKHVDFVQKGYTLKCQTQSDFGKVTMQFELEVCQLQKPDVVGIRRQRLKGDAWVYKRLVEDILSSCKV

SMILES: COc1cc(-c2ccc3ncc(C(=O)C4CC4)c(-c4cn[nH]c4)c3c2)cc(Cl)c1O [Example 536, (6-(3-chloro-4-hydroxy-5-methoxyphenyl)-4-(1H-pyrazol-4-yl)quinolin-3-yl)(cyclopropyl)methanone]
IC50 [1]: 0.11 µM
IC50 [2]: 1.3 µM
IC50 [3, 4]: 14 µM

SMILES: O=C(c1cnc2ccc(-c3cc(F)c(O)c(Cl)c3)cc2c1NC1CCC(N2CCC(F)(F)C2)CC1)C1CC1 (stereo not drawn) [Example 675, (6-(3-chloro-5-fluoro-4-hydroxyphenyl)-4-(4-(3,3-difluoropyrrolidin-1-yl)cyclohexylamino)quinolin-3-yl)(cyclopropyl)methanone]
IC50 [1]: 0.83 µM
IC50 [2]: 0.8 µM
IC50 [3, 5]: 4.4 µM

IC50 [2]: 7.2 µM
SMILES: CN(C)CC1CCN(c2c(C(=O)C3CC3)cnc3ccc(-c4ccc(OC(F)F)cc4)cc23)CC1 [Example 458]
IC50 [3, 5]: 8.4 µM

SMILES: COc1cc(-c2cc(F)c3ncc(C(=O)C4CC4)c(Nc4ccc(CN(C)C)cc4)c3c2)cc(Cl)c1O [Example 551, (6-(3-chloro-4-hydroxy-5-methoxyphenyl)-4-(4-((dimethylamino)methyl)phenylamino)-8-fluoroquinolin-3-yl)(cyclopropyl)methanone]
IC50 [1]: 1.1 µM
IC50 [2]: 2 µM
IC50 [3, 4]: 6.9 µM

SMILES: CN[C@H]1CC[C@H](Nc2c(C(C)=O)cnc3ccc(-c4cc(F)c(O)c(Cl)c4)cc23)CC1 [Example 560]
IC50 [1]: 0.11 µM
IC50 [2]: 0.041 µM
IC50 [3, 4]: 10 µM

SMILES: N[C@H]1CC[C@H](Nc2c(C(=O)C3CC3)cnc3c(F)cc(-c4cc(Cl)c(O)c(Cl)c4)cc23)CC1 [Example 565]
IC50 [1]: 2.1 µM
IC50 [2]: 0.3 µM
IC50 [3, 4]: 10 µM

SMILES: CCCC(=O)c1cnc2ccc(-c3cc(Cl)c(O)c(Cl)c3)cc2c1Nc1ccc(N2CCNCC2)nc1 [Example 625, 1-(6-(3,5-dichloro-4-hydroxyphenyl)-4-(6-(piperazin-1-yl)pyridin-3-ylamino)quinolin-3-yl)butan-1-one]
IC50 [1]: 0.15 µM
IC50 [2]: 1.5 µM
IC50 [3, 4]: 10 µM

SMILES: COc1cc(-c2ccc3ncc(C(=O)C4CC4)c(NCC(=O)N4CCN(C)CC4)c3c2)cc(Cl)c1O [Example 395, 2-(6-(3-chloro-4-hydroxy-5-methoxyphenyl)-3-(cyclopropanecarbonyl)quinolin-4-ylamino)-1-(4-methylpiperazin-1-yl)ethanone]
IC50 [1, 6]: 1 µM
IC50 [2]: 10 µM
IC50 [3, 5]: 10 µM

SMILES: COc1cc(-c2cc(F)c3ncc(C(=O)C4CC4)c(N[C@H]4CC[C@H](N)CC4)c3c2)cc(Cl)c1O [Example 564]
IC50 [1]: 0.26 µM
IC50 [2]: 0.43 µM
IC50 [3, 4]: 1.8 µM

SMILES: CN(C)Cc1ccc(Nc2c(C(=O)C3CC3)cnc3c(F)cc(-c4cc(Cl)c(O)c(Cl)c4)cc23)cc1 [Example 552, cyclopropyl(6-(3,5-dichloro-4-hydroxyphenyl)-4-(4-((dimethylamino)methyl)phenylamino)-8-fluoroquinolin-3-yl)methanone]
IC50 [1]: 0.58 µM
IC50 [2]: 1.1 µM
IC50 [3, 4]: 9 µM

SMILES: COC(=O)c1ccc(-c2ccc3ncc(C(=O)C4CC4)c(N4CCC(CN(C)C)CC4)c3c2)cc1 [Example 481, methyl 4-(3-(cyclopropanecarbonyl)-4-(4-((dimethylamino)methyl)piperidin-1-yl)quinolin-6-yl)benzoate]
IC50 [1]: 1.4 µM
IC50 [2]: 10 µM
IC50 [3, 5]: 10 µM

SMILES: CN(C)Cc1ccc(Nc2c(C(=O)C3CC3)cnc3c(F)cc(-c4cc(F)c(O)c(Cl)c4)cc23)cc1 [Example 563, (6-(3-chloro-5-fluoro-4-hydroxyphenyl)-4-(4-((dimethylamino)methyl)phenylamino)-8-fluoroquinolin-3-yl)(cyclopropyl)methanone]
IC50 [1]: 1.8 µM
IC50 [2]: 1.3 µM
IC50 [3, 4]: 3.3 µM

SMILES: O=C(c1cnc2ccc(-c3cc(Cl)c(O)c(Cl)c3)cc2c1Nc1ccc(CN2CCC(F)(F)C2)cc1)C1CC1 [Example 581, cyclopropyl(6-(3,5-dichloro-4-hydroxyphenyl)-4-(4-((3,3-difluoropyrrolidin-1-yl)methyl)phenylamino)quinolin-3-yl)methanone]
IC50 [1]: 0.63 µM
IC50 [2]: 1.4 µM
IC50 [3, 4]: 5.3 µM

SMILES: COc1cc(-c2ccc3ncc(C(=O)C4CC4)c(NC4CCC(N5CCC(F)(F)C5)CC4)c3c2)cc(Cl)c1O (stereo not drawn) [Example 676, (6-(3-chloro-4-hydroxy-5-methoxyphenyl)-4-(4-(3,3-difluoropyrrolidin-1-yl)cyclohexylamino)quinolin-3-yl)(cyclopropyl)methanone]
IC50 [1]: 0.29 µM
IC50 [2]: 1 µM
IC50 [3, 5]: 11 µM

SMILES: CN(C)CC1CCN(c2c(C(=O)C3CC3)cnc3ccc(-c4ccc(C(=O)O)cc4)cc23)CC1 [Example 492, 4-(3-(cyclopropanecarbonyl)-4-(4-((dimethylamino)methyl)piperidin-1-yl)quinolin-6-yl)benzoic acid]
IC50 [1]: 1.4 µM
IC50 [2]: 10 µM
IC50 [3, 5]: 10 µM

SMILES: CC(=O)c1c(C)nc2ccc(-c3cc(Cl)c(O)c(Cl)c3)cc2c1N[C@H]1CC[C@H](CN(C)C)CC1 [Example 833, 1-(6-(3,5-dichloro-4-hydroxyphenyl)-4-(1R,4R)-4-((dimethylamino)methyl)cyclohexylamino)-2-methylquinolin-3-yl)ethanone hydrochloride]
IC50 [1, 7]: 0.17 µM

IC50 [2]: 10 µM
SMILES: CN(C)CC1CCN(c2c(C(=O)C3CC3)cnc3ccc(-c4ccc5c(c4)CC(=O)N5)cc23)CC1 [Example 474]
IC50 [3, 5]: 10 µM

SMILES: CN1CCN(c2ccc(Nc3c(C(=O)C4CC4)cnc4cc(C(F)(F)F)c(-c5cc(F)c(O)c(Cl)c5)cc34)cn2)CC1 [Example 840, (6-(3-chloro-5-fluoro-4-hydroxyphenyl)-4-(6-(4-methylpiperazin-1-yl)pyridin-3-ylamino)-7-(trifluoromethyl)quinolin-3-yl)(cyclopropyl)methanone]
IC50 [1, 7]: 3.1 µM

SMILES: CC(=O)c1cnc2ccc(-c3ccc4nc[nH]c4c3)cc2c1Nc1ccc(N2CCC(N(C)C)C2)nc1 (stereo not drawn) [Example 905, 1-(6-(1H-benzo[d]imidazol-6-yl)-4-((6-(3-(dimethylamino)pyrrolidin-1-yl)pyridin-3-yl)amino)quinolin-3-yl) ethanone hydrochloride]
IC50 [1, 7]: 0.11 µM

SMILES: CC(=O)c1cnc2cc(C)c(-c3cc(F)c(O)c(Cl)c3)cc2c1Nc1ccc(CN(C)C)cc1 [Example 858, 1-(6-(3-chloro-5-fluoro-4-hydroxy-phenyl)-4-((4-((dimethylamino)methyl)phenyl)amino)-7-methylquinolin-3-yl)ethanone hydrochloride]
IC50 [1, 7]: 0.2 µM

SMILES: CC(=O)c1cnc2ccc(-c3cc(Cl)c(O)c(Cl)c3)cc2c1Nc1ccc(CN(C)C)cc1 [Example 374]
IC50 [1, 7]: 0.0066 µM

SMILES: CC(=O)c1cnc2cc(C)c(-c3cc(Cl)c(O)c(Cl)c3)cc2c1Nc1ccc(CN(C)C)cc1 [Example 847, 1-(6-(3,5-dichloro-4-hydroxyphenyl)-4-(4-((dimethylamino)methyl)phenyl-amino)-7-methylquinolin-3-yl) ethanone hydrochloride]
IC50 [1, 7]: 0.55 µM

SMILES: O=C(c1cnc2ccc(-c3cc(Cl)c(O)c(Cl)c3)cc2c1NC1CCC(N2CCC(F)(F)C2)CC1)C1CC1 (stereo not drawn) [Example 664, cyclopropyl(6-(3,5-dichloro-4-hydroxyphenyl)-4-(4-(3,3-difluoropyrrolidin-1-yl)cyclohexylamino)quinolin-3-yl)methanone]
IC50 [1]: 0.14 µM
IC50 [2]: 1.7 µM
IC50 [3, 5]: 10 µM

SMILES: N[C@H]1CC[C@H](Nc2c(C(=O)C3CC3)cnc3c(F)cc(-c4cc(F)c(O)c(Cl)c4)cc23)CC1 [Example 555]
IC50 [1]: 5.1 µM
IC50 [2]: 0.44 µM
IC50 [3, 4]: 10 µM

SMILES: O=C(c1cnc2ccc(-c3cc(Cl)c(O)c(Cl)c3)cc2c1Nc1ccc(CN2CCCC2)cc1)C1CC1 [Example 366, Cyclopropyl{6-(3,5-dichloro-4-hydroxyphenyl)-4-[4-(pyrrolidin-1-ylmethyl)phenylamino]quinolin-3-yl}methanone]
IC50 [1, 7]: 0.15 µM

SMILES: CN(C)CC1CCN(c2c(C(=O)C3CC3)cnc3ccc(-c4ccc(C(F)F)cc4)cc23)CC1 [Example 465]
IC50 [1, 6]: 0.91 µM
IC50 [2]: 8.6 µM
IC50 [3, 5]: 5.6 µM

SMILES: CC(C)C(=O)c1cnc2ccc(-c3cc(F)c(O)c(F)c3)cc2c1N[C@H]1CC[C@H](N)CC1 [Example 938, 1-(4-((1R,4R)-4-aminocyclohexylamino)-6-(3,5-difluoro-4-hydroxyphenyl)quinolin-3-yl)-2-methylpropan-1-one, hydrochloride]
IC50 [1, 7]: 0.017 µM
